Experiments:
microtubule = experiment: Microtubule structure; type: cell-based
HL-60 cells = experiment: Micropipette aspiration cortical tension; type: cell-based, human; conditions: 500 nM, 1 hr
Method: The instrumental and experimental setups have been previously described (Effler J C, et al., 2006; Kee Y-S, et al., 2013). Micropipette aspiration assays were all carried out in growth media with 0.1% DMSO. For cortical tension measurements of Dictyostelium cells, pressure was applied to the cell cortex with a micropipette (2-3 m radius, Rp) to the equilibrium pressure (ΔP) where the length of the cell inside the pipette (Lp) was equal to Rp. The effective cortical tension (Teff) was calculated by applying the Young-Laplace equation: ΔP=2Teff(1/Rp-1/Rc), where Rc is the radius of the cell and ΔP is the equilibrium pressure when Lp=Rp (Derganc J, et al., 2000; Octtaviani E, et al., 2006). For creep tests on mammalian strains, a constant aspiration stress was applied over 60 s. The micropipette radius was 3.5-4.5 m. For quantification, the Lp/Rp ratio values was measured every two seconds and plotted as a function of time. A10.7 and HEK293 cells could only be aspirated at a low pressure range (0.15 nN/μm^2), while HPDE, ASPC-1, and HL-60 cells could be aspirated at higher pressure ranges (0.25 nN/μm^2) because they were stiffer.

[1] = tested on: AsPC-1 shCTRL and shIIA cells; experiment: Transwell migration of knockdown lines; type: cell-based, human
Method: AsPC-1 cells were plated in 6.5-mm PET membrane transwell inserts with 8-μm pores (Costar #3464) in a 24-well plate at a concentration of 5,000 cells per well. Cells were allowed to adhere overnight in AsPC-1 media. Cell media was then changed to serum-free RPMI 1640 to starve cells for 18 hrs. Following starvation, cells were stimulated by changing media in the top chamber to fresh serum-free RPMI 1640±500 nM 4-HAP and complete AsPC-1 media ±500 nM 4HAP. Cells were then incubated for 24 hrs at 37 degrees C./5% CO2 and then fixed in 4% paraformaldehyde, permeabilized in 0.1% Triton X-100 and stained with 1 μg/ml DAPI. […] A total of five random fields per transwell insert were imaged using a 10× objective (NA) and nuclei were averaged.

ASPC-1 cells = experiment: Retrograde actin flow (SiR-actin, lattice light-sheet); type: cell-based, human; conditions: 500 nM
Method: AsPC-1 cells were grown on collagen I-coated (50 μg/ml) 5-mm coverslips for 16 hrs and then treated with 100-nM SiR-Actin (Cytoskeleton, Inc) and […] Verapamil for 4 hrs in Leibovitz L-15 without phenol red media, with or without 4-HAP (500 nM). Coverslips were transferred to the imaging chamber of the Lattice Light-Sheet Microscope (LLSM) (Intelligent Imaging Innovations) containing fresh Leibovitz L-15 media without SiR-Actin and verapamil plus the corresponding 4-HAP concentration. Cells were imaged for 3-5 min at 2-3-sec intervals, 50-150 planes per 3D stack, with a Nikon CFI75 Apochromat 25×/1.1 water-dipping objective. Retrograde actin flow was measured using ImageJ (rsb.info.nih.gov/ij). Datasets were independently analyzed by multiple investigators.

[2] = tested on: Panc10.05 tissue spheroids; experiment: Tissue spheroid dissemination and cortical actin structure; type: cell-based, human
Method: Tissue spheroids were grown by plating Panc10.05 cells on a drop of Matrigel (Becton-Dickinson) in an 8-well slide chamber (6,500 cells per well) and grown in RPMI 1640 media (2% serum, 2% matrigel, and 10 ng/ml EGF). Spheroids were grown for 14 days with regular media changes, then aspirated off the surface of the matrigel, washed with ice-cold PBS with mild centrifugation ([…], 5 min). For all 2D spreading assays, spheroids were then plated on 50 µg/ml collagen-coated 8-well coverslips (MatTek) and incubated for 48 hrs in complete PANC media with 500 nM 4-HAP or PBS control. For 3D invasion assays, spheroids were resuspended in a 1.5 mg/ml collagen solution (Life Technologies) and then plated in 8-well chambered coverslips. […] All spheroid samples were fixed in 4% paraformaldehyde for 15 min at 25° C. and permeabilized in 0.1% Triton X-100 for 15 min at 25° C. The actin cytoskeleton was visualized with rhodamine-phalloidin ([…]) for 30 min. Two-dimensional spreading was visualized with Olympus Spinning disk microscope (40× oil objective, 1.30NA) or Nikon-NSIM (100× objective, 1.4NA) with an Andor EMCCD camera controlled by NIS-Elements software. Three-dimensional invasion through collagen was visualized with an Olympus Spinning Disk microscope (20× air, 0.4NA).
Quantification of 2D spheroids plated on a thin layer of collagen was performed using a custom-designed Matlab script (Mathworks, Natick, Mass.). A maximum intensity projection of 20 z-slices was extracted from each of the images and converted to 16-bit grayscale before enhancing the pixel intensity (Matlab command: histeq). The enhanced image was then segmented into foreground and background using the Chan-Vese method (activecountour), followed by filtering of small regions (bwareaopen), and morphological erosion (imerode). The boundary from this object was then obtained (bwboundary) and average background intensity was subtracted. This method was used for more than 80% of the images. […] This option allowed the user to select a region of interest surrounding the outer edge of the spheroid (roipoly). Anything outside of this boundary was masked and subsequently not considered (regionfill). Following this, a similar binarization/background subtraction regime was implemented on the unmasked region and the boundary was traced.
For each point along the boundary, a line perpendicular to the edge was computed and the intensity along this line was used to linearize the cortex. The resultant matrix was converted into a grayscale image. The Hough Transform was used to determine the continuity of the actin belt along the edge of the cortex. Linearized cortex images were binarized using a threshold chosen to best differentiate belt from non-belt for each set of images (imbinarize), followed by filtering of small regions (bwareaopen), and morphological dilation (imdilate). The Hough Transform was performed on this image (hough), and Hough peaks and lines identified (houghpeaks, houghlines). These were used to create a continuity score defined by (E Hough line lengths)/(number of lines+length of image). In this metric, higher scores indicate a more continuous actin belt at the cortex. Additionally, we computed: a coarseness index of the cortex (std2) to describe actin distribution, the percentage of white pixels of the binarized image to characterize actin belt thickness, and the ratio of white pixels to gray pixels (greater than 0.15) to describe the distribution of fluorescence.

SMILES	microtubule structure (microtubule)	cortical tension (HL-60 cells)	transwell migration [1]	detectability of actin flow (ASPC-1 cells)	reduction in retrograde actin flow velocity over untreated controls (ASPC-1 cells; cells in which flow could be measured) [%]	dissemination from spheroids ([2]; NMIIA knockdown, 3D collagen I, 24 hours)	dissemination from spheroids ([2]; control knockdown, 3D collagen I, 24 hours)	actin band continuity score ([2]; control spheroids)	cortex coverage by actin bands ([2]; control spheroids)	cortex coverage by actin bands ([2]; myo IIA knockdowns)	cortex coverage by actin bands ([2]; myo IIC knockdowns)	increase in median percentage staining of actin at tissue edge ([2]; myosin IIA knockdown spheroids, 2D) [fold]	dissemination from spheroids ([2]; myosin IIC-depleted spheroids)	actin band continuity score ([2]; shIIA spheroids, p=0.01)	actin belt formation ([2]; when myosin IIC is present)
Nc1ccc(Cl)c(Cl)c1 [3,4-DCA, 3,4-dichloroaniline]	neither 3,4-DCA nor 4-HAP affected microtubule structure														
CC(=O)c1ccc(O)cc1 [4-HAP, 4-hydroxyacetophenone]	neither 3,4-DCA nor 4-HAP affected microtubule structure	does not alter the cortical tension	moderate dose-dependence reduction of transwell migration	undetectable levels of actin flow	50	decreased	decreased	decreased upon treatment with 4-HAP	decreased cortex coverage	the coverage increased	unaffected by the treatment of 4-HAP	2	no effect was observed	increased significantly	Actin belts are formed
